Test system: gastric acid secretion in dogs having chronic gastric fistula
Assay: Gastric acid secretion inhibiting effect in dogs having chronic gastric fistula (histamine-stimulated)
Type: in vivo
Settings: dog, histamine i.v.; for Gastric Acid Secretion Inhibiting Action (%): first day, 1 h 40 min to 2 h after administration; for Gastric Acid Secretion Inhibiting Persistence (%): second day (24 hours after administration)
Method: Using large dogs (body weight approximately 14 to 19 kg) having a chronic gastric fistula, the gastric acid secretion inhibiting action and gastric acid secretion inhibiting action persistence of test compounds of the Examples was investigated. The experiment was carried out over 2 days. On the first day, gastric juice was collected every 20 minutes under conditions of intravenously administering histamine (50 or 75 μg/kg/h) continuously for 3 hours. 1 Hour after commencing the histamine administration, the test compound suspended or dissolved in a 0.5% methylcellulose solution was administered at a volume of 0.1 ml/kg via an indwelling catheter in the duodenum. The gastric acid secretion inhibiting action of the test compound was then investigated over the subsequent 2 hours. On the second day (24 hours after the administration of the test compound), gastric juice was collected every 20 minutes under conditions of intravenously administering histamine continuously for 2 hours, and the gastric acid secretion inhibiting action persistence was investigated. After measuring the amount of gastric juice, a 0.5 ml sample of the gastric juice was taken, and neutralization titration was carried out to a pH of 7.0 with a 0.04 mol/l sodium hydroxide solution so as to measure the acid concentration. The acid concentration was multiplied by the amount of gastric juice so as to determine the gastric acid output. The gastric acid secretion inhibiting action was evaluated as the gastric acid secretion suppression rate (%) on the first day. The gastric acid secretion inhibiting action (%) was calculated using the following formula. In the case of 2 or more dogs, the mean over all of the dogs was calculated and is shown.
Gastric acid secretion inhibiting action (%)=(A−B)/A×100
[A] Gastric acid output over 20 minutes from 40 minutes to 1 hour after commencement of histamine administration [B] Gastric acid output over 20 minutes from 1 hour 40 minutes to 2 hours after administration of test compound
The gastric acid secretion inhibiting action persistence was evaluated as the gastric acid secretion suppression rate (%) on the second day. The gastric acid secretion inhibiting action persistence (%) was calculated using the following formula.
Gastric acid secretion inhibiting action persistence (%)=(C−D)/C×100
[C] Total gastric acid output from commencement of histamine administration on first day to 1 hour thereafter [D] Total gastric acid output from commencement of histamine administration on second day to 1 hour thereafter

[1] = 0.4 mg/kg i.d., mean of 10 dogs

With Cc1cnc(C[S+]([O-])c2nc3ccccc3[n-]2)c(C)c1OCC1COC(C)(C)OC1.[Na+] (stereo not drawn) [Compound X, Sodium Salt of Optical Isomer Having Short Retention Time of 2-[[[4-(2,2-dimethyl-1,3-dioxan-5-yl)methoxy-3,5-dimethylpyridin-2-yl]methyl]sulfinyl]-1H-benzimidazole] the “Gastric Acid Secretion Inhibiting Action (%)” value (0.1 mg/kg i.d., mean of 4 dogs) was 8%, the “Gastric Acid Secretion Inhibiting Persistence (%)” value (0.1 mg/kg i.d., mean of 4 dogs) was 6% and the “Gastric Acid Secretion Inhibiting Action (%)” value (0.2 mg/kg i.d., mean of 4 dogs) was 65%. The “Gastric Acid Secretion Inhibiting Persistence (%)” value (0.2 mg/kg i.d., mean of 4 dogs) was 46%, the “Gastric Acid Secretion Inhibiting Action (%)” value [1] was 97% and the “Gastric Acid Secretion Inhibiting Persistence (%)” value [1] was 77%. For the same compound, the “Gastric Acid Secretion Inhibiting Action (%)” value (0.8 mg/kg i.d., mean of 8 dogs) was 100% and the “Gastric Acid Secretion Inhibiting Persistence (%)” value (0.8 mg/kg i.d., mean of 8 dogs) was 89%.
